Experiments:
Format in all cases: in vivo
[1] = system: large crabgrass (Digitaria sanguinalis, DIGSA); test: Pre-emerge test, greenhouse herbicide activity screening; details: pre-emerge, rated 14 days after application, 0 = no damage, 100 = complete death
Outline: (§1)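 Herbicidal damage is scored 0 (none) to 100 (complete plant death) two weeks after a simulated field spray. Rates span 15–1000 g ai/ha, delivered in acetone at 187 l/ha. For post-emergence treatments, plants have 2–3 leaves and the spray carries 0.25% v/v non-ionic surfactant.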

[2] = system: green foxtail (Setaria viridis, SETVI); test: as above; details: pre-emerge, rated 14 days after application, 0 = no damage, 100 = complete death
Outline: as §1

[3] = system: johnsongrass (Sorghum halepense, SORHA); test: as above; details: pre-emerge, rated 14 days after application, 0 = no damage, 100 = complete death
Outline: as §1

[4] = system: velvetleaf (Abutilon theophrasti, ABUTH); test: as above; details: pre-emerge, rated 14 days after application, 0 = no damage, 100 = complete death
Outline: as §1

[5] = system: barnyardgrass (Echinochloa crus-galli, ECHCG); test: as above; details: pre-emerge, rated 14 days after application, 0 = no damage, 100 = complete death
Outline: as §1

[6] = system: ivyleaf morningglory (Ipomoea hederacea, IPOHE); test: as above; details: pre-emerge, rated 14 days after application, 0 = no damage, 100 = complete death
Outline: as §1

[7] = system: sicklepod (Cassia obtusifolia, CASOB); test: as above; details: pre-emerge, rated 14 days after application, 0 = no damage, 100 = complete death
Outline: as §1

[8] = system: lambsquarters (Chenopodium album, CHEAL); test: as above; details: pre-emerge, rated 14 days after application, 0 = no damage, 100 = complete death
Outline: as §1

[9] = system: field corn (Zea mays L., var. Dekalb 535, CORN); test: Post-emerge test, crop safety; details: phytotoxicity rating 0-100 (0 no damage, 100 complete death), 14 days after application
Outline: as §1

[10] = system: upland rice (Oryza sp., var. Tebonnet, RICE); test: Post-emerge test, crop safety; details: phytotoxicity rating 0-100 (0 no damage, 100 complete death), 14 days after application
Outline: as §1

[11] = system: large crabgrass (Digitaria sanguinalis, DIGSA); test: Post-emerge test, greenhouse herbicide activity screening; details: phytotoxicity rating 0-100 (0 no damage, 100 complete death), 14 days after application
Outline: (§2)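 Plants grown in 10 cm pots of sandy loam mix received acetone-dissolved compounds through a moving flat-fan nozzle. Doses ranged from 15 to 1000 g ai/ha. Pre-emerge pots were seeded one day earlier, post-emerge pots 8–21 days earlier. Fourteen days on, each pot was graded 0–100 for damage.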

[12] = system: green foxtail (Setaria viridis, SETVI); test: as above; details: phytotoxicity rating 0-100 (0 no damage, 100 complete death), 14 days after application
Outline: as §2

[13] = system: johnsongrass (Sorghum halepense, SORHA); test: as above; details: phytotoxicity rating 0-100 (0 no damage, 100 complete death), 14 days after application
Outline: as §2

[14] = system: velvetleaf (Abutilon theophrasti, ABUTH); test: as above; details: phytotoxicity rating 0-100 (0 no damage, 100 complete death), 14 days after application
Outline: as §2

[15] = system: barnyardgrass (Echinochloa crus-galli, ECHCG); test: as above; details: phytotoxicity rating 0-100 (0 no damage, 100 complete death), 14 days after application
Outline: as §2

[16] = system: ivyleaf morningglory (Ipomoea hederacea, IPOHE); test: as above; details: phytotoxicity rating 0-100 (0 no damage, 100 complete death), 14 days after application
Outline: as §2

[17] = system: redroot pigweed (Amaranthus retroflexus, AMARE); test: as above; details: phytotoxicity rating 0-100 (0 no damage, 100 complete death), 14 days after application
Outline: as §2

[18] = system: lambsquarters (Chenopodium album, CHEAL); test: as above; details: phytotoxicity rating 0-100 (0 no damage, 100 complete death), 14 days after application
Outline: as §2

[19] = system: field corn (Zea mays L., var. Dekalb 535, CORN); test: Pre-emerge test, crop safety; details: pre-emerge, rated 14 days after application, 0 = no damage, 100 = complete death
Outline: (§3)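 Compounds in acetone were track-sprayed at 187 l/ha, 15–1000 g ai/ha, onto sandy loam pots. Pre-emerge seeds were sown one day before spraying, with surface watering afterwards. Post-emerge plants were at the 2–3 leaf stage and sprayed with 0.25% v/v non-ionic surfactant. Injury was rated 0–100 at 14 days.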

[20] = system: upland rice (Oryza sp., var. Tebonnet, RICE); test: Pre-emerge test, crop safety; details: pre-emerge, rated 14 days after application, 0 = no damage, 100 = complete death
Outline: as §3

[21] = system: redroot pigweed (Amaranthus retroflexus, AMARE); test: Pre-emerge test, greenhouse herbicide activity screening; details: pre-emerge, rated 14 days after application, 0 = no damage, 100 = complete death
Outline: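 Rating: 0–100 visual injury, 14 DAA. Application: acetone, 187 l/ha, 15–1000 g ai/ha, flat-fan track sprayer with nozzle 40–45 cm above soil or canopy. Post-emerge runs used 0.25% v/v surfactant on 2–3 leaf plants.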

In the case of `C=Cc1ccc(C(=O)Nc2c(OC)c(Cl)cc(F)c2-n2c(=O)cc(C(F)(F)F)n(C)c2=O)cc1` [2-31], the “Pre-emerge Herbicidal Activity DIGSA (phytotoxicity rating, scale 0-100)” value ([1]; 63 g ai/ha) is reported as 90, the “Pre-emerge Herbicidal Activity DIGSA (phytotoxicity rating, scale 0-100)” value ([1]; 250 g ai/ha) is reported as 100 and the “Pre-emerge Herbicidal Activity SETVI (phytotoxicity rating, scale 0-100)” value ([2]; 63 g ai/ha) is reported as 100. For the same molecule, the “Pre-emerge Herbicidal Activity SETVI (phytotoxicity rating, scale 0-100)” value ([2]; 250 g ai/ha) was 100, the “Pre-emerge Herbicidal Activity SORHA (phytotoxicity rating, scale 0-100)” value ([3]; 63 g ai/ha) was 60 and the “Pre-emerge Herbicidal Activity SORHA (phytotoxicity rating, scale 0-100)” value ([3]; 250 g ai/ha) was 85. The “Pre-emerge Herbicidal Activity ABUTH (phytotoxicity rating, scale 0-100)” value ([4]; 63 g ai/ha) was 100, the “Pre-emerge Herbicidal Activity ABUTH (phytotoxicity rating, scale 0-100)” value ([4]; 250 g ai/ha) was 100 and the “Pre-emerge Herbicidal Activity ECHCG (phytotoxicity rating, scale 0-100)” value ([5]; 63 g ai/ha) was 40. The “Pre-emerge Herbicidal Activity ECHCG (phytotoxicity rating, scale 0-100)” value ([5]; 250 g ai/ha) was 100, the “Pre-emerge Herbicidal Activity IPOHE (phytotoxicity rating, scale 0-100)” value ([6]; 63 g ai/ha) was 100 and the “Pre-emerge Herbicidal Activity IPOHE (phytotoxicity rating, scale 0-100)” value ([6]; 250 g ai/ha) was 100. The “Pre-emerge Herbicidal Activity CASOB (phytotoxicity rating, scale 0-100)” value ([7]; 63 g ai/ha) was 100, the “Pre-emerge Herbicidal Activity CASOB (phytotoxicity rating, scale 0-100)” value ([7]; 250 g ai/ha) was 100 and the “Pre-emerge Herbicidal Activity CHEAL (phytotoxicity rating, scale 0-100)” value ([8]; 63 g ai/ha) was 100. For the same molecule, the “Pre-emerge Herbicidal Activity CHEAL (phytotoxicity rating, scale 0-100)” value ([8]; 250 g ai/ha) was 100, the “Post-emerge Herbicidal Activity CORN (crop damage)” value ([9]; 63 g ai/ha) was 40 and the “Post-emerge Herbicidal Activity CORN (crop damage)” value ([9]; 250 g ai/ha) was 60. The “Post-emerge Herbicidal Activity RICE (crop damage)” value ([10]; 63 g ai/ha) was 50, the “Post-emerge Herbicidal Activity RICE (crop damage)” value ([10]; 250 g ai/ha) was 70 and the “Post-emerge Herbicidal Activity DIGSA” value ([11]; 63 g ai/ha) was 0. The “Post-emerge Herbicidal Activity DIGSA” value ([11]; 250 g ai/ha) was 20, the “Post-emerge Herbicidal Activity SETVI” value ([12]; 63 g ai/ha) was 10 and the “Post-emerge Herbicidal Activity SETVI” value ([12]; 250 g ai/ha) was 20. For the same molecule, the “Post-emerge Herbicidal Activity SORHA” value ([13]; 63 g ai/ha) was 10, the “Post-emerge Herbicidal Activity SORHA” value ([13]; 250 g ai/ha) was 30 and the “Post-emerge Herbicidal Activity ABUTH” value ([14]; 63 g ai/ha) was 100. The “Post-emerge Herbicidal Activity ABUTH” value ([14]; 250 g ai/ha) was 100, the “Post-emerge Herbicidal Activity ECHCG” value ([15]; 63 g ai/ha) was 10 and the “Post-emerge Herbicidal Activity ECHCG” value ([15]; 250 g ai/ha) was 40. The “Post-emerge Herbicidal Activity IPOHE” value ([16]; 63 g ai/ha) was 90, the “Post-emerge Herbicidal Activity IPOHE” value ([16]; 250 g ai/ha) was 100 and the “Post-emerge Herbicidal Activity AMARE” value ([17]; 63 g ai/ha) was 100. For the same molecule, the “Post-emerge Herbicidal Activity AMARE” value ([17]; 250 g ai/ha) was 90, the “Post-emerge Herbicidal Activity CHEAL” value ([18]; 63 g ai/ha) was 80 and the “Post-emerge Herbicidal Activity CHEAL” value ([18]; 250 g ai/ha) was 95. For the same molecule, the “Pre-emerge crop damage CORN (phytotoxicity rating, scale 0-100)” value ([19]; 63 g ai/ha) was 20, the “Pre-emerge crop damage CORN (phytotoxicity rating, scale 0-100)” value ([19]; 250 g ai/ha) was 40 and the “Pre-emerge crop damage RICE (phytotoxicity rating, scale 0-100)” value ([20]; 63 g ai/ha) was 40. For the same molecule, the “Pre-emerge crop damage RICE (phytotoxicity rating, scale 0-100)” value ([20]; 250 g ai/ha) was 90, the “Pre-emerge Herbicidal Activity AMARE (phytotoxicity rating, scale 0-100)” value ([21]; 63 g ai/ha) was 100 and the “Pre-emerge Herbicidal Activity AMARE (phytotoxicity rating, scale 0-100)” value ([21]; 250 g ai/ha) was 100.

Source: patent US6355799B1, “Substituted benzene compounds, process for their preparation, and herbicidal and defoliant compositions containing them” (ISK Americas Incorporated, priority 1997, dated 2002)
